Experimental data taken from patent US9610365B2, “Anthracenyl-tetralactam macrocycles and their use in detecting a target saccharide” (UNIVERSITY OF BRISTOL, priority 2012, dated 2017).

Legend:
[1] = 1H NMR titration, binding to carbohydrate substrate; conditions: 1H NMR titration in D2O at 298 K
Method: (§1) The binding of receptor compound 3 to carbohydrate substrates, in aqueous solution, was studied initially by ^1H NMR titrations at 298 K. The saccharides used as test substrates are shown in FIG. 7.
(§2) Titrations were performed on a Varian™ 500 MHz spectrometer. Solutions of reducing carbohydrates were prepared in D2O and kept overnight at room temperature before the titration experiments, in order to ensure equilibration of anomers. In a typical titration, aliquots of carbohydrate solution were added to receptor solution (DSS as internal standard) and the ^1H NMR spectra were recorded. Variations in chemical shifts were entered into a specifically written non-linear least squares curve-fitting program implemented within Excel™. Assuming 1:1 stoichiometry, the program calculates Ka and the limiting change in chemical shift Δδ. The assumption is supported by the generally good fits between observed and calculated data.

[2] = Solubility and aggregation in water/D2O (NMR dilution studies); type: physicochemical
Method: The compound was dissolved in D2O at concentrations up to ˜4 mM giving clean, if slightly broadened, ^1H NMR spectra. Minor signal movements were observed on dilution to ˜1 mM but no further effect was observed below this concentration, implying that the system is monomeric at 1 mM or less.

[3] = 1H NMR titration, binding to carbohydrate substrate; conditions: 1H NMR titration in D2O at 298 K; remark: listed apart in the source
Method: as §1, §2

[4] = as above; conditions: 1H NMR titration in D2O at 298 K; ~0 = too small for analysis
Method: as §1, §2

[5] = as above; conditions: 1H NMR titration in D2O at 298 K; ~0 = too small for analysis; remark: listed apart in the source
Method: as §1, §2

[6] = Photobleaching under continuous UV irradiation in a fluorescence spectrometer; type: physicochemical; conditions: in 5 hours
Method: Under continuous UV irradiation in a fluorescence spectrometer, emission decayed by <10% in 5 hours. In a practical glucose monitoring device this would translate to a long lifetime as the receptor compound would be subjected only to short pulses of light every few seconds.

[7] = 1H NMR titration, binding to carbohydrate substrate; conditions: 1H NMR titration in D2O at 298 K; ~0 = too small for analysis; remark: listed apart in the source
Method: as §1, §2

[8] = as above; conditions: 1H NMR titration in D2O at 298 K; remark: listed apart in the source
Method: as §1, §2

[9] = as above
Method: as §1, §2

[10] = as above; conditions: 1H NMR titration in D2O at 298 K; remark: listed apart in the source
Method: as §1, §2

Fluorescence titration = type: binding; conditions: for Ka: fluorescence titration in phosphate buffer solution (pH 7.1, 0.1 M) at 298 K
Method: (§3) Fluorescence titrations were carried out at 298 K on a PerkinElmer™ LS45 spectrometer in PBS (phosphate buffered saline) buffer solution (pH 7.1, 100 mM). The carbohydrate stock solutions were prepared by dissolving the carbohydrates in buffer containing the receptor at the concentration to be used in the titration (thus avoiding dilution of the receptor during the experiment). The solutions were kept overnight at room temperature before the titration experiments, in order to ensure equilibration of anomers. The wavelength to be used for fluorescence excitation was determined by measurement of the UV-visible spectrum of receptor 3 in the presence of carbohydrates. 394 nm was chosen, because at this wavelength the absorption of receptor was almost independent of carbohydrate concentration. In a typical titration, aliquots of carbohydrate-receptor solution were added to receptor solution (2.5 mL) in a quartz cuvette (3 mL, 10 mm pathway). The solution was stirred for 2 minutes and left to stand for another 1 minute before the emission spectrum was recorded. Binding constants were calculated using non-linear curve fitting assuming 1:1 binding stoichiometry, employing both Kaleidagraph™ and a customised Excel™ spreadsheet. Errors were estimated at <5%.

[11] = Isothermal titration calorimetry (ITC); type: binding
Method: (§4) Experiments were performed on a VP-ITC™ (Microcal, Inc., Northampton, Mass.) at 298 K. Stock solutions of carbohydrates were made up in pure HPLC grade water and allowed to equilibrate overnight. Receptor solutions were made up in pure water. All the solutions were degassed and thermostated using the ThermoVac™ accessory before titration. The sample cell volume was 1.4226 mL. Each titration experiment included 25-35 successive injections.

[12] = 1H NMR titration, binding to carbohydrate substrate; conditions: 1H NMR titration in D2O at 298 K; ~0 = too small for analysis; remark: listed apart in the source
Method: as §1, §2

[13] = as above; conditions: 1H NMR titration in D2O at 298 K; remark: listed apart in the source
Method: as §1, §2

[14] = as above; conditions: 1H NMR titration in D2O at 298 K; remark: listed apart in the source
Method: as §1, §2

[15] = as above; conditions: 1H NMR titration in D2O at 298 K; ~0 = too small for analysis; remark: listed apart in the source
Method: as §1, §2

[16] = as above; conditions: 1H NMR titration in D2O at 298 K; remark: listed apart in the source
Method: as §1, §2

[17] = as above; conditions: 1H NMR titration in D2O at 298 K; remark: listed apart in the source
Method: as §1, §2

[18] = 1H NMR titration, summary for non-target monosaccharides; type: binding; conditions: all non-target monosaccharides aside from methyl α-D-glucoside
Method: as §1, §2

[19] = Fluorescence emission properties of the receptor; type: physicochemical
Method: as §3, with “The solution was stirred for 2 minutes and left to stand for another 1 minute before the emission spectrum was recorded. Binding constants were calculated using non-linear curve fitting assuming 1:1 binding stoichiometry, employing both Kaleidagraph™ and a customised Excel™ spreadsheet. Errors were estimated at <5%.” left out
It can be seen that on excitation with UV light at 394 nm, 3 emitted in the blue-violet region, peaking at 423 nm, with a quantum yield of 2.4% (20 μm aqueous solution). […] Binding constants obtained by this method were in good agreement with those measured by NMR titrations (see Table 1). Moreover these fluorescence characteristics are promising for practical glucose sensing, especially when compared to biphenyl-based synthetic lectins. […]

[20] = 1H NMR titration, binding to carbohydrate substrate; conditions: 1H NMR titration in D2O at 298 K; remark: listed apart in the source
Method: as §1, §2

[21] = as above; conditions: 1H NMR titration in D2O at 298 K; remark: listed apart in the source
Method: as §1, §2

[22] = as above; conditions: 1H NMR titration in D2O at 298 K; remark: listed apart in the source
Method: as §1, §2

[23] = as above; conditions: 1H NMR titration in D2O at 298 K; ~0 = too small for analysis; remark: listed apart in the source
Method: as §1, §2

[24] = Isothermal titration calorimetry (ITC); type: binding; conditions: ITC titration in water at 298 K
Method: as §4

[25] = 1H NMR titration, binding to carbohydrate substrate; conditions: 1H NMR titration in D2O at 298 K; ~0 = too small for analysis; remark: listed apart in the source
Method: as §1, §2

[26] = as above; conditions: 1H NMR titration in D2O at 298 K; remark: listed apart in the source
Method: as §1, §2

[27] = as above; conditions: for Ka: 1H NMR titration in D2O at 298 K
Method: as §1, §2

[28] = as above; conditions: 1H NMR titration in D2O at 298 K; remark: listed apart in the source
Method: as §1, §2

[29] = 1H NMR titration, 1.1 mM receptor, glucose 0 to 200 mM, 298 K
[30] = 0.125 mM to 2 mM in D2O at 298 K

Q: With `O=C(O)CCOCC(COCCC(=O)O)(COCCC(=O)O)NC(=O)c1cc2cc(c1)C(=O)NCc1c3ccccc3c(c3ccccc13)CNC(=O)c1cc(cc(C(=O)NC(COCCC(=O)O)(COCCC(=O)O)COCCC(=O)O)c1)C(=O)NCc1c3ccccc3c(c3ccccc13)CNC2=O` [Compound 3] as the compound, how does the Ka [1] read?
A: The Ka was 9 M⁻¹.

Q: What about the “concentration at which system is monomeric” value ([2]; D2O, NMR dilution) of the same compound?
A: Its value is ≤ 1000 µM.

Q: What about the “concentration dissolved in D2O” value ([2]; giving clean 1H NMR spectra) of the same compound?
A: Its value is ~4000 µM.

Q: What about the Ka [3] of the same compound?
A: Its Ka is 35 M⁻¹.

Q: And the Ka [4]?
A: Its Ka is ~0 M⁻¹.

Q: And the Ka [5]?
A: Its Ka is ~0 M⁻¹.

Q: What about the “emission decay (photobleaching)” value [6] of the same compound?
A: Its value is < 10%.

Q: And the Ka [7]?
A: The Ka was ~0 M⁻¹.

Q: What about the Ka [8] of the same compound?
A: Its Ka is 87 M⁻¹.

Q: And the Ka ([9]; 1H NMR titration in D2O at 298 K, ~0 = too small for analysis)?
A: The Ka was ~0 M⁻¹.

Q: What about the “response when added to receptor” value ([9]; mannitol) of the same compound?
A: The value was “Neither produced any response”.

Q: And the Ka [10]?
A: The Ka was 96 M⁻¹.

Q: And the Ka (Fluorescence titration; binding data at 423 nm)?
A: Its Ka is 58 M⁻¹.

Q: What about the Ka (Fluorescence titration; with D -lactose) of the same compound?
A: Its Ka is 9 M⁻¹.

Q: What about the Ka (Fluorescence titration; with methyl β-D-glucoside 10) of the same compound?
A: Its Ka is 121 M⁻¹.

Q: And the “increase of emission intensity on addition of glucose (factor)” value (Fluorescence titration; receptor 18.8 μM, excitation 394 nm)?
A: Its value is “up to 2.5”.

Q: What about the Ka ([11]; ITC titration in water at 298 K) of the same compound?
A: The Ka was 55 M⁻¹.

Q: What about the TΔS of binding ([11]; ITC, 298 K, water) of the same compound?
A: Its TΔS of binding is -1.4 kcal/mol.

Q: And the ΔH of binding ([11]; ITC, 298 K, water)?
A: Its ΔH of binding is -3.8 kcal/mol.

Q: What about the Ka [12] of the same compound?
A: Its Ka is ~0 M⁻¹.

Q: What about the Ka [13] of the same compound?
A: Its Ka is 10 M⁻¹.

Q: And the Ka [14]?
A: Its Ka is 24 M⁻¹.

Q: What about the Ka [15] of the same compound?
A: Its Ka is ~0 M⁻¹.

Q: And the Ka [16]?
A: The Ka was 6 M⁻¹.

Q: And the Ka [17]?
A: Its Ka is 1 M⁻¹.

Q: And the Ka [18]?
A: The Ka was ≤ 1 m^−1.

Q: What about the quantum yield ([19]; 20 μm aqueous solution, excitation 394 nm) of the same compound?
A: The quantum yield was 2.4%.

Q: And the emission peak ([19]; excitation with UV light at 394 nm)?
A: Its emission peak is 423 nm.

Q: What about the Ka [20] of the same compound?
A: Its Ka is 1 M⁻¹.

Q: What about the Ka [21] of the same compound?
A: Its Ka is 36 M⁻¹.

Q: What about the Ka [22] of the same compound?
A: The Ka was 16 M⁻¹.

Q: And the Ka [23]?
A: The Ka was ~0 M⁻¹.

Q: And the Ka [24]?
A: Its Ka is 101 M⁻¹.

Q: What about the Ka [25] of the same compound?
A: Its Ka is ~0 M⁻¹.

Q: And the Ka [26]?
A: The Ka was 28 M⁻¹.

Q: And the Ka [27]?
A: Its Ka is 56 M⁻¹.

Q: What about the Ka ([27]; ~0 = too small for analysis) of the same compound?
A: The Ka was ~0 M⁻¹.

Q: And the “association constant Ka from movement of proton E” value [27, 29]?
A: The value was 58 M⁻¹.

Q: And the “association constant Ka from movement of proton F” value [27, 29]?
A: The value was 54 M⁻¹.

Q: And the receptor occupancy ([27]; 310 K, across the physiological range of 2-10 mM glucose)?
A: Its receptor occupancy is 6-25%.

Q: And the “response when added to receptor” value ([27]; lactate)?
A: Its value is “Neither produced any response”.

Q: What about the “affinity measured by NMR titration” value ([27]; physiological temperature (310 K)) of the same compound?
A: The value was 33 M⁻¹.

Q: And the Ka [28]?
A: Its Ka is 1 M⁻¹.

Q: Which “aggregation during NMR dilution studies” value [2, 30] does the source give for `O=C([O-])CCC(CCC(=O)[O-])(CCC(=O)[O-])NC(=O)CCC(CCC(=O)NC(CCC(=O)[O-])(CCC(=O)[O-])CCC(=O)[O-])(CCC(=O)NC(CCC(=O)[O-])(CCC(=O)[O-])CCC(=O)[O-])NC(=O)c1cc2cc(c1)C(=O)NCc1c3ccccc3c(c3ccccc13)CNC(=O)c1cc(cc(C(=O)NC(CCC(=O)NC(CCC(=O)[O-])(CCC(=O)[O-])CCC(=O)[O-])(CCC(=O)NC(CCC(=O)[O-])(CCC(=O)[O-])CCC(=O)[O-])CCC(=O)NC(CCC(=O)[O-])(CCC(=O)[O-])CCC(=O)[O-])c1)C(=O)NCc1c3ccccc3c(c3ccccc13)CNC2=O.[Na+].[Na+].[Na+].[Na+].[Na+].[Na+].[Na+].[Na+].[Na+].[Na+].[Na+].[Na+].[Na+].[Na+].[Na+].[Na+].[Na+].[Na+]` [Compound 13] here?
A: The value was “no indication of aggregation”.

Q: And the solubility in water [2, 30]?
A: The solubility in water was “good solubility in water”.

Q: And the “increase in fluorescence emission upon binding with D-glucose” value (Fluorescence titration; em 423 nm, ex 395 nm, 18.8 μM, phosphate buffer pH 7.1)?
A: The value was “approximately three-fold”.

Q: What about the Ka (Fluorescence titration; binding data at 423 nm) of the same compound?
A: The Ka was 87 M⁻¹.

Q: And the Ka [27]?
A: The Ka was 89 M⁻¹.

Q: Which Ka [1] does the source give for `O=C([O-])CCOCC(COCCC(=O)[O-])(COCCC(=O)[O-])NC(=O)c1cc2cc(c1)C(=O)NCc1c3ccccc3c(c3ccccc13)CNC(=O)c1cc(cc(C(=O)NC(COCCC(=O)[O-])(COCCC(=O)[O-])COCCC(=O)[O-])c1)C(=O)NCc1ccc(cc1)CNC2=O.[Na+].[Na+].[Na+].[Na+].[Na+].[Na+]` [Compound 9] here?
A: Its Ka is “too small to measure”.

Q: What about the Ka [27] of the same compound?
A: The Ka was “too small to measure”.
